Experimental data published in article PMC10388362, “Fluorescent Ligands Enable Target Engagement Studies for the Intracellular Allosteric Binding Site of the Chemokine Receptor CXCR2” (Journal of Medicinal Chemistry, 2023).

Key:
CXCR1 = molecular target: T1, CXCR1 (Homo sapiens, UniProt P25024); experiment: Membrane-based NanoBRET saturation assay, selectivity (CXCR1_Nluc membranes); format: binding; conditions: cell-free
T1 construct: host or cells: HEK293T, transient; membrane preparation
T1 sequence (P25024 1-350): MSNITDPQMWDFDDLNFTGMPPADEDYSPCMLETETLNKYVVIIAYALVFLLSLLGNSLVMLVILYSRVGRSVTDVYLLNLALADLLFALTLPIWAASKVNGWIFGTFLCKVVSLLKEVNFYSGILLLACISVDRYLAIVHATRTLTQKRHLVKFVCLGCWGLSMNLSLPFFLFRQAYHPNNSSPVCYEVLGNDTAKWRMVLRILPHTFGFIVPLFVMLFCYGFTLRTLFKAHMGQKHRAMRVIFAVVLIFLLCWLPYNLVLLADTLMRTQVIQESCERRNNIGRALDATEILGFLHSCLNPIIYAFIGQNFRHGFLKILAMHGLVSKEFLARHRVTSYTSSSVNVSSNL
Protocol: (§1) For the establishment of our NanoBRET binding assay, we referred to a recently published protocol.[45] The fluorescent ligands (9a–c) were dissolved in DMSO (1 mM) and further diluted to varying concentrations in an assay buffer (50 mM Na2HPO4, 50 mM KH2PO4, pH 7.4, 1 mg/mL saponin, 5% FBS) and 5 μL of these dilutions were pipetted to a 384-well plate. To determine the total binding, 5 μL of the assay buffer was added to the corresponding wells, while 5 μL of a solution of 3 in the assay buffer (final assay concentration: 1 μM) was used to determine nonspecific binding. Then, 20 μL of the membrane preparations diluted in the assay buffer (2 μg total protein/well) were added and the plates were incubated for 90 min at 37 °C. Subsequently, 5 μL of a furimazine solution (Promega, Mannheim, Germany, final assay dilution: 1:5000) was added to each well (final assay volume: 35 μL) before measuring luminescence with a CLARIOstar microplate reader using 620/10 and 475/30 nm emission filters after 5 min of incubation in the dark. Bioluminescence resonance energy transfer (BRET) was determined as the ratio of acceptor fluorescence and donor luminescence. The algorithms for one-site saturation binding from PRISM9.5 (GraphPad) were utilized to analyze total, nonspecific, and specific binding. Specific binding signals were calculated as a difference of total and nonspecific binding. If required, netBRET values were calculated as the difference between total BRET values and the values obtained in the absence of a fluorescent ligand. For selectivity studies with CCR2, CCR7, CCR9, and CXCR1, we modified the procedure described above.

CCR9 = molecular target: T2, CCR9 (Homo sapiens, UniProt P51686); experiment: Membrane-based NanoBRET saturation assay, selectivity (CCR9_Nluc membranes)
T2 construct: host or cells: HEK293T; membrane preparation
T2 sequence (P51686 1-369): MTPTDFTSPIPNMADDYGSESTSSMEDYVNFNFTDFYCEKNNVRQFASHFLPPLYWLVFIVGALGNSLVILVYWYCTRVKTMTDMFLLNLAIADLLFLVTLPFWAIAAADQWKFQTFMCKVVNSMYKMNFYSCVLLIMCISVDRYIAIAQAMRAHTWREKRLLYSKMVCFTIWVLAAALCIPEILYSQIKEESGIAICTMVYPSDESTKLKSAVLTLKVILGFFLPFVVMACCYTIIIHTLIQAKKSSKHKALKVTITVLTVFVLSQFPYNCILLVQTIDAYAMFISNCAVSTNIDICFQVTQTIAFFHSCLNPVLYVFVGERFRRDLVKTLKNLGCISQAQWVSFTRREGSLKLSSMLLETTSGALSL
Protocol: as §1, with “The algorithms for one-site saturation binding from PRISM9.5 (GraphPad) were utilized to analyze total, nonspecific, and specific binding.” left out, “For selectivity studies with CCR2, CCR7, CCR9, and CXCR1, we modified the procedure described above.” left out

CCR7 = molecular target: T3, CCR7 (Homo sapiens, UniProt P32248); experiment: Membrane-based NanoBRET saturation assay, selectivity (CCR7_GSSG_Nluc membranes)
T3 construct: host or cells: HEK293T; membrane preparation
T3 sequence (P32248 25-378): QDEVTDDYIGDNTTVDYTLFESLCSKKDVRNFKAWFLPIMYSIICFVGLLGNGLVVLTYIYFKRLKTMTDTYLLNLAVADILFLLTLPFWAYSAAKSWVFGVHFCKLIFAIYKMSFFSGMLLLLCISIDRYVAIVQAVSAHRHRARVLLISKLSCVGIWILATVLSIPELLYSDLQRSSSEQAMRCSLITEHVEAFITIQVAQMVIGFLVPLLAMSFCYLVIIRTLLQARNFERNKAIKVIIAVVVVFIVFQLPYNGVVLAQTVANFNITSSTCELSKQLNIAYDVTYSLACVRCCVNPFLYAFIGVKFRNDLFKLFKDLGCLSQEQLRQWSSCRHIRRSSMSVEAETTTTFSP
Protocol: as §1, with “The algorithms for one-site saturation binding from PRISM9.5 (GraphPad) were utilized to analyze total, nonspecific, and specific binding.” left out, “For selectivity studies with CCR2, CCR7, CCR9, and CXCR1, we modified the procedure described above.” left out

CCR2 = molecular target: T4, CCR2 (Homo sapiens, UniProt P41597); experiment: Membrane-based NanoBRET saturation assay, selectivity (CCR2_GSSG_Nluc membranes)
T4 construct: host or cells: HEK293T; membrane preparation
T4 sequence (P41597 1-360 isoform P41597-2): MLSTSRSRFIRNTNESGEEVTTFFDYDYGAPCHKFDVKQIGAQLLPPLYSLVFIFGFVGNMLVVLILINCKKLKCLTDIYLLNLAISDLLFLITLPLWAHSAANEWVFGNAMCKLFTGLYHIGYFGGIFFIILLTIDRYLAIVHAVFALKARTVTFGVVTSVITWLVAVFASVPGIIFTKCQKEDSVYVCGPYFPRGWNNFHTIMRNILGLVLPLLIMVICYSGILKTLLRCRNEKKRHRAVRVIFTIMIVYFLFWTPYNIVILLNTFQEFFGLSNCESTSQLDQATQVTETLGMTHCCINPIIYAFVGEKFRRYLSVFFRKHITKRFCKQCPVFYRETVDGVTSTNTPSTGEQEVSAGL
Protocol: as §1, with “The algorithms for one-site saturation binding from PRISM9.5 (GraphPad) were utilized to analyze total, nonspecific, and specific binding.” left out, “For selectivity studies with CCR2, CCR7, CCR9, and CXCR1, we modified the procedure described above.” left out

Kd (CXCR1; CXCR1_Nluc membranes): 198 ± 29 nM
selectivity for CXCR2 compared to CXCR1 (CXCR1; from Kd values): ~50 fold
binding to CCR9 (CCR9): no significant binding
binding to CCR7 (CCR7): no significant binding
binding to CCR2 (CCR2): no significant binding
SMILES: Cc1ccc([C@H](Nc2c(Nc3cccc(C(=O)NCc4cn(CCOCCOCCOCCNC(=O)c5ccc(C(=O)[O-])c(-c6c7ccc(=[N+](C)C)cc-7oc7cc(N(C)C)ccc67)c5)nn4)c3O)c(=O)c2=O)C(C)(C)C)o1 [9a, (R)-4-((2-(2-(2-(2-(4-((3-((2-((2,2-Dimethyl-1-(5-methylfuran-2-yl)propyl)amino)-3,4-dioxocyclobut-1-en-1-yl)amino)-2-hydroxybenzamido)methyl)-1H-1,2,3-triazol-1-yl)ethoxy)ethoxy)ethoxy)ethyl)carbamoyl)-2-(6-(dimethylamino)-3-(dimethyliminio)-3H-xanthen-9-yl)benzoate]
